# Reference: US20260060250A1, “HERBICIDAL PYRIDONE DERIVATIVES” (SYNGENTA CROP PROTECTION AG, priority 2022, published 2026)
# Key:
# Format in all cases: in vivo
# Settings in all cases: evaluated after 13 days
# [1] = test system: Amaranthus retroflexus (AMARE); test: Pre-emergence Test (Table B1)
# Zea mays (ZEAMX) [2] = test: Pre-emergence Test (Table B1); design: key: 5=81-100%; 4=61-80%; 3=41-60%; 2=21-40%; 1=0-20%; 0=inactive
# [3] = test system: Amaranthus palmeri (AMAPA); test: Pre-emergence Test (Table B1); design: key: 5=81-100%; 4=61-80%; 3=41-60%; 2=21-40%; 1=0-20%; 0=inactive
# Setaria faberi (SETFA) [4] = test: Post-emergence Test (Table B2)
# Protocol: (§1) Seeds of a variety of test species are sown in standard soil in pots (Amaranthus palmeri (AMAPA), Setaria faberi (SETFA), Echinochloa crus-galli (ECHCG), (Amaranthus retroflexus (AMARE), Zea mays (ZEAMX), Ipomoea hederacea (IPOHE)). After 8 days cultivation under controlled conditions in a glasshouse (at 24° C./16° C., day/night; 14 hours light; 65% humidity), the plants are sprayed with an aqueous spray solution derived from the formulation of the technical active ingredient in acetone/water (50:50) solution containing 0.5% Tween 20 (polyoxyethelyene sorbitan monolaurate, CAS RN 9005-64-5). Compounds are applied at 1000 g/ha unless otherwise stated. The test plants are then grown in a glasshouse under controlled conditions in a glasshouse (at 24° C./16° C., day/night; 14 hours light; 65% humidity) and watered twice daily. After 13 days the test is evaluated for the percentage damage caused to the plant.
# [5] = test system: Amaranthus retroflexus (AMARE); test: Post-emergence Test (Table B2)
# Protocol: as §1
# [6] = test system: Amaranthus palmeri (AMAPA); test: Post-emergence Test (Table B2)
# Protocol: as §1
# Setaria faberi (SETFA) [7] = test: Pre-emergence Test (Table B1); design: key: 5=81-100%; 4=61-80%; 3=41-60%; 2=21-40%; 1=0-20%; 0=inactive
# [8] = test system: Echinochloa crus-galli (ECHCG); test: Pre-emergence Test (Table B1); design: key: 5=81-100%; 4=61-80%; 3=41-60%; 2=21-40%; 1=0-20%; 0=inactive
# [9] = test system: Ipomoea hederacea (IPOHE); test: Pre-emergence Test (Table B1); design: key: 5=81-100%; 4=61-80%; 3=41-60%; 2=21-40%; 1=0-20%; 0=inactive
# [10] = test system: Ipomoea hederacea (IPOHE); test: Post-emergence Test (Table B2)
# Protocol: as §1
# Zea mays (ZEAMX) [11] = test: Post-emergence Test (Table B2)
# Protocol: as §1
# [12] = test system: Echinochloa crus-galli (ECHCG); test: Post-emergence Test (Table B2)
# Protocol: as §1
# [13] = lower rate of 250 g per hectare
Structure (SMILES),"percentage damage caused to the plant, AMARE ([1]; 1000 g/ha)","percentage damage caused to the plant, ZEAMX (Zea mays (ZEAMX) [2]; 1000 g/ha)","percentage damage caused to the plant, AMAPA ([3]; 1000 g/ha)","percentage damage caused to the plant, SETFA (Setaria faberi (SETFA) [4]; 1000 g/ha)","percentage damage caused to the plant, AMARE ([5]; 1000 g/ha)","percentage damage caused to the plant, AMAPA ([6]; 1000 g/ha)","percentage damage caused to the plant, SETFA (Setaria faberi (SETFA) [7]; 1000 g/ha)","percentage damage caused to the plant, ECHCG ([8]; 1000 g/ha)","percentage damage caused to the plant, IPOHE ([9]; 1000 g/ha)","percentage damage caused to the plant, IPOHE ([10]; 1000 g/ha)","percentage damage caused to the plant, ZEAMX (Zea mays (ZEAMX) [11]; 1000 g/ha)","percentage damage caused to the plant, ECHCG ([12]; 1000 g/ha)",also measured
"CCn1c(C)c(-c2cc(C(=O)OC3CCCC3)c(Cl)cc2F)c(=O)c(C(=O)O)c1-c1ccc(Cl)c(Cl)c1 [Compound 24, 5-[4-chloro-5-(cyclopentoxycarbonyl)-2-fluoro-phenyl]-2-(3,4-dichlorophenyl)-1-ethyl-6-methyl-4-oxo-pyridine-3-carboxylic acid]",5 (5=81-100%),0,5 (5=81-100%),5 (5=81-100%),5 (5=81-100%),5 (5=81-100%),1 (1=0-20%),1 (1=0-20%),3 (3=41-60%),4 (4=61-80%),3 (3=41-60%),5 (5=81-100%),–
"C#CCC(C)OC(=O)c1cc(-c2c(C)n(CC)c(-c3ccc(Cl)c(Cl)c3)c(C(=O)O)c2=O)c(F)cc1Cl (stereo not drawn) [Compound 43, 5-[4-chloro-2-fluoro-5-(1-methylbut-3-ynoxycarbonyl)phenyl]-2-(3,4-dichlorophenyl)-1-ethyl-6-methyl-4-oxo-pyridine-3-carboxylic acid]",–,–,–,–,–,–,–,–,–,–,–,–,"percentage damage caused to the plant, AMARE [1, 13]: 2 (2=21-40%); percentage damage caused to the plant, ZEAMX (Zea mays (ZEAMX) [2]; [13]): 0; percentage damage caused to the plant, AMAPA [3, 13]: 0; percentage damage caused to the plant, SETFA (Setaria faberi (SETFA) [4]; [13]): 3 (3=41-60%); percentage damage caused to the plant, AMARE [5, 13]: 5 (5=81-100%); percentage damage caused to the plant, AMAPA [6, 13]: 5 (5=81-100%); percentage damage caused to the plant, SETFA (Setaria faberi (SETFA) [7]; [13]): 0; percentage damage caused to the plant, ECHCG [8, 13]: 0; percentage damage caused to the plant, IPOHE [9, 13]: 0; percentage damage caused to the plant, IPOHE [10, 13]: 2 (2=21-40%); percentage damage caused to the plant, ZEAMX (Zea mays (ZEAMX) [11]; [13]): 4 (4=61-80%); percentage damage caused to the plant, ECHCG [12, 13]: 4 (4=61-80%)"
"C#CC(C)OC(=O)c1ccc(F)c(-c2c(C)n(CC)c(-c3ccc(Cl)c(Cl)c3)c(C(=O)O)c2=O)c1 (stereo not drawn) [Compound 12, 2-(3,4-dichlorophenyl)-1-ethyl-5-[2-fluoro-5-(1-methylprop-2-ynoxycarbonyl)phenyl]-6-methyl-4-oxo-pyridine-3-carboxylic acid]",5 (5=81-100%),1 (1=0-20%),4 (4=61-80%),5 (5=81-100%),5 (5=81-100%),5 (5=81-100%),4 (4=61-80%),3 (3=41-60%),1 (1=0-20%),2 (2=21-40%),3 (3=41-60%),4 (4=61-80%),–
"CCn1c(C)c(-c2cc(C(=O)OC(C)COC)c(Cl)cc2F)c(=O)c(C(=O)O)c1-c1ccc(Cl)c(Cl)c1 (stereo not drawn) [Compound 26, 5-[4-chloro-2-fluoro-5-(2-methoxy-1-methyl-ethoxy)carbonyl-phenyl]-2-(3,4-dichlorophenyl)-1-ethyl-6-methyl-4-oxo-pyridine-3-carboxylic acid]",5 (5=81-100%),0,5 (5=81-100%),5 (5=81-100%),5 (5=81-100%),5 (5=81-100%),4 (4=61-80%),4 (4=61-80%),3 (3=41-60%),5 (5=81-100%),5 (5=81-100%),5 (5=81-100%),–
"C=CCOC(=O)c1cc(-c2c(C)n(CC)c(-c3ccc(Cl)c(Cl)c3)c(C(=O)O)c2=O)c(F)cc1Cl [Compound 3, 5-(5-allyloxycarbonyl-4-chloro-2-fluoro-phenyl)-2-(3,4-dichlorophenyl)-1-ethyl-6-methyl-4-oxo-pyridine-3-carboxylic acid]",5 (5=81-100%),0,5 (5=81-100%),5 (5=81-100%),5 (5=81-100%),5 (5=81-100%),1 (1=0-20%),0,2 (2=21-40%),4 (4=61-80%),4 (4=61-80%),5 (5=81-100%),–
"CCn1c(C)c(-c2cc(C(=O)OC3CC3)c(Cl)cc2F)c(=O)c(C(=O)O)c1-c1ccc(C#N)c(Cl)c1 [Compound 46, 2-(3-chloro-4-cyano-phenyl)-5-[4-chloro-5-(cyclopropoxycarbonyl)-2-fluoro-phenyl]-1-ethyl-6-methyl-4-oxo-pyridine-3-carboxylic acid]",–,–,–,–,–,–,–,–,–,–,–,–,"percentage damage caused to the plant, AMARE [1, 13]: 5 (5=81-100%); percentage damage caused to the plant, ZEAMX (Zea mays (ZEAMX) [2]; [13]): 0; percentage damage caused to the plant, AMAPA [3, 13]: 5 (5=81-100%); percentage damage caused to the plant, SETFA (Setaria faberi (SETFA) [4]; [13]): 5 (5=81-100%); percentage damage caused to the plant, AMARE [5, 13]: 5 (5=81-100%); percentage damage caused to the plant, AMAPA [6, 13]: 5 (5=81-100%); percentage damage caused to the plant, SETFA (Setaria faberi (SETFA) [7]; [13]): 1 (1=0-20%); percentage damage caused to the plant, ECHCG [8, 13]: 0; percentage damage caused to the plant, IPOHE [9, 13]: 2 (2=21-40%); percentage damage caused to the plant, IPOHE [10, 13]: 4 (4=61-80%); percentage damage caused to the plant, ZEAMX (Zea mays (ZEAMX) [11]; [13]): 5 (5=81-100%); percentage damage caused to the plant, ECHCG [12, 13]: 5 (5=81-100%)"
"C=C(C)COC(=O)c1cc(-c2c(C)n(CC)c(-c3ccc(Cl)c(Cl)c3)c(C(=O)O)c2=O)c(F)cc1Cl [Compound 1, 5-[4-chloro-2-fluoro-5-(2-methylallyloxycarbonyl)phenyl]-2-(3,4-dichlorophenyl)-1-ethyl-6-methyl-4-oxo-pyridine-3-carboxylic acid]",5 (5=81-100%),0,5 (5=81-100%),4 (4=61-80%),5 (5=81-100%),5 (5=81-100%),4 (4=61-80%),1 (1=0-20%),2 (2=21-40%),2 (2=21-40%),2 (2=21-40%),5 (5=81-100%),–
